{
  "source": "patent US20120214818A1",
  "about": "“METHODS OF TREATING DIASTOLIC DYSFUNCTION AND RELATED CONDITIONS” (THE BOARD OF TRUSTEES OF THE UNIVERSITY OF ILLINOIS, priority 2009, published 2012)",
  "system": "myofilaments of skinned left ventricular papillary fiber bundles",
  "test": "Simultaneous tension and ATPase rate in skinned fiber bundles (second series)",
  "format": "biochemical, mouse",
  "conditions": "ranolazine 15 min; for Maximum ATPase: 20° C.; for Ktr, the rate constant for force redevelopment: in s-1 (unit assumed)",
  "experimental": "We measured myofilament response to Ca^2+ under two experimental conditions as described in detail below. In a first series of experiments the skinned fiber bundles were mounted in a force measuring apparatus and sarcomere length (SL) was adjusted to 2.2 μm using a laser diffraction pattern and width and thickness were determined for calculation of cross-sectional area. Force was measured over a range of pCa values Skinned fiber bundles were treated with 10 μmol/L ranolazine for 15 min prior to evaluation. In a second series of experiments under different experimental conditions, we determined steady-state Mg-ATPase activity, while simultaneously measuring isometric tension in skinned fiber bundles as a function of pCa. In all experiments, skinned fibers were treated with ranolazine or DMSO vehicle for 15 min prior to beginning either tension or tension/ATPase rate measurements. Tension generated was computed from the force/cross-sectional area and data were analyzed in the GraphPad Prism software and fit with a sigmoidal modified Hill equation in order to generate tension-pCa curves, Hill coefficients, and pCa50 (pCa value at half-maximum tension). We also determined cross-bridge kinetics employing a quick release/restretch protocol. The rate constant for force redevelopment, Ktr, provides a measure of the rate of cross-bridge entry into the force generating state. In all experiments, only fiber bundles retaining more than 80% of their initial maximum tension were included in the analysis. We treated the fibers with ranolazine from a DMSO stock solution or DMSO alone added to relaxing solution for 15 min prior to the experimental run. Methods for gel electrophoresis analysis of myofilament protein phosphorylation and oxidative modifications are provided below.\nStudies with detergent extracted (skinned) fiber bundles: Mice were anesthetized with pentobarbital (50 mg/kg IP), and the hearts were rapidly excised and rinsed in a pH 7.0 ice-cold relaxing solution (HR) composed of (in mM) 10 EGTA, 41.89K-Prop, 6.57 MgCl2, 100 BES, 6.22 ATP, 5 Na azide, and 10 creatine phosphate. The solution also contained 1 μg/ml leupeptin, 2.5 μg/ml pepstatin A, and 50 μM phenylmethylsulfonyl fluoride. Left ventricular papillary muscles were dissected and fiber bundles were prepared as previously described (Wolska et al., J. Physiol. 536: 863-870 (2001)). The fiber bundles were extracted overnight in relaxing solution plus 1% Triton X-100 at 4° C.\nIn a second series of experiments force and ATPase rate were measured simultaneously using methods and an experimental apparatus previously described (de Tombe et al., Circ Res 76: 734-741 (1995); Wolska et al., Circ Res 84: 745-751 (1999)). The fiber bundles were mounted between a force transducer and displacement motor using aluminum T-clips, and the sarcomere length was set to 2.2 μm using He—Ne laser diffraction (Vahebi et al., Circ Res 96: 740-747 (2005)). The width and diameter were each measured at three points along the fiber bundle. Force per cross-sectional area was used to determine tension. The fiber was contracted initially at a saturating calcium concentration (pCa 4.5) and sarcomere length was again adjusted to 2.2 μm. Sarcomere length remained constant throughout the rest of the experiment.\nATPase activity was measured at 20° C. as previously described and calibrated with rapid injections of ADP (0.5 nmol) with a motor-controlled syringe (de Tombe et al., 1990, supra; Wolska et al., 1999, supra). The fiber was placed in relaxing solution for 2 min, then in the preactivation solution for 2-3 min each time before being placed in the activating solution for 1-2 min (until stabilization of force) and then quickly returned to the relaxing solution. Various contraction-relaxation cycles were carried out using different ratios of total calcium concentration to total EGTA concentration. The final contraction was again at a saturating calcium concentration. […]",
  "data": [
    {"smiles": "COc1ccccc1OCC(O)CN1CCN(CC(=O)Nc2c(C)cccc2C)CC1", "note": "(stereo not shown) [ranolazine]", "values": [
      {"measurement": "Maximum Tension", "setting": "DOCA-salt fiber bundles", "value": "27.19 ± 0.54", "unit": "mN/mm^2"},
      {"measurement": "Passive Tension", "setting": "DOCA-salt fiber bundles", "value": "0.68 ± 0.40", "unit": "mN/mm^2"},
      {"measurement": "Tension Cost ΔATPase/ΔTension", "setting": "DOCA-salt fiber bundles", "value": "10.8 ± 0.8"},
      {"measurement": "Maximum ATPase", "setting": "DOCA-salt fiber bundles", "value": "326.9 ± 8.7", "unit": "pmol/s/mg"},
      {"measurement": "Ktr, the rate constant for force redevelopment", "setting": "DOCA-salt fiber bundles", "value": "11.0 ± 1.0"},
      {"measurement": "Maximum Tension", "setting": "sham fiber bundles", "value": "36.80 ± 0.16", "unit": "mN/mm^2"},
      {"measurement": "Passive Tension", "setting": "sham fiber bundles", "value": "0.55 ± 0.33", "unit": "mN/mm^2"},
      {"measurement": "Tension Cost ΔATPase/ΔTension", "setting": "sham fiber bundles", "value": "7.1 ± 0.4"},
      {"measurement": "Maximum ATPase", "setting": "sham fiber bundles", "value": "302.0 ± 9.0", "unit": "pmol/s/mg"},
      {"measurement": "Ktr, the rate constant for force redevelopment", "setting": "sham fiber bundles", "value": "11.2 ± 0.5"}
    ]}
  ]
}
